Laboratory results from ChEMBL document CHEMBL1201862, “PubChem BioAssay data set” (2004).
Calls of active or inactive are those of the source.

Legend:
Assay type in all cases: functional
[1] = molecular target: Melanin-concentrating hormone receptor 1 (Homo sapiens, UniProt Q99705); test: Late-stage fluorescence-based counterscreen for antagonists of the G-protein coupled receptor 7 (GPR7): cell-based dose response assay to identify antagonists of the melanin-concentrating hormone receptor 1 (MCHR1) Set 5.
[2] = molecular target: Neuropeptides B/W receptor type 1 (Homo sapiens, UniProt P48145); test: GPR7 antagonist potency, late-stage follow-up, cell-based, fluorescence, dose response, set 5 (AID 588566)
[3] = Vero cell cytotoxicity, dose response, cytotoxicity control for M. tuberculosis growth inhibitor project, Vero cells, purified and synthesized compounds, set 5 (AID 504909); conditions: Mycobacterium tuberculosis
[4] = THP-1 cell cytotoxicity, cytotoxicity control, set 4 (AID 504911); conditions: Mycobacterium tuberculosis

Melanin-concentrating hormone receptor 1, sequence (Q99705 whole entry): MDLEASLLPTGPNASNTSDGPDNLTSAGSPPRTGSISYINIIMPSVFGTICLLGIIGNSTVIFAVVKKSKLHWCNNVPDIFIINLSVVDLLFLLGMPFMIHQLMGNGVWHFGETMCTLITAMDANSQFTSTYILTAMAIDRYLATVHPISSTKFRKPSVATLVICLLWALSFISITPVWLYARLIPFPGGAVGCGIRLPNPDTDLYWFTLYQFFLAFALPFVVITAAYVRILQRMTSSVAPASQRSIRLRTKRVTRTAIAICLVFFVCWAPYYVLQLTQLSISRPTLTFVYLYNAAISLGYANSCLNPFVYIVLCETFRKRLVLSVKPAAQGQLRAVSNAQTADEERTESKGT
Neuropeptides B/W receptor type 1, sequence (P48145 whole entry): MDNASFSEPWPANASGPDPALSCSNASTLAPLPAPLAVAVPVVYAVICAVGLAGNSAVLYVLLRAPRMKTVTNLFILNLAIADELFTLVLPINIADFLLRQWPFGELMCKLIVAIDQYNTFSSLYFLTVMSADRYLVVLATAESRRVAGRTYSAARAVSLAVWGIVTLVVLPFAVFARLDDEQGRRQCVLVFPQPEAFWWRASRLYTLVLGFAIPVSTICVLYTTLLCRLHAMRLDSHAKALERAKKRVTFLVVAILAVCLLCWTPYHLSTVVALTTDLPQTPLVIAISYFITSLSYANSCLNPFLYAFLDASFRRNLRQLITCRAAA

With `COc1ccc(Oc2c(Cl)cnn(CC(=O)C(C)(C)C)c2=O)cc1` the IC50 [1] was > 20 µM (inactive) and the IC50 [2] was > 20 µM (inactive).
In the case of `CO[C@H]1/C=C/O[C@@]2(C)Oc3c(C)c(O)c4c(O)c(c(C=NN5CCN(C)CC5)c(O)c4c3C2=O)NC(=O)/C(C)=C\C=C\[C@H](C)[C@H](O)[C@@H](C)[C@@H](O)[C@@H](C)[C@H](OC(C)=O)[C@@H]1C` [RIFAMPIN], the CC50 [3] is reported as > 100 µM (active) and the CC50 [4] is reported as 79.7 µM (active).
